# System: C57BL/6J mice (AHR^b)
# Assay: In vivo hepatic microsomal EROD activity, C57BL/6J
# Parameters: species or system mouse
# Details: oral 30, 80 or 120 mg/kg, 48 hours
# Protocol: We utilized the wild type rat hepatoma cell line, 5L, which harbors the high affinity AHR isoform, and our newly created AHR^d-15 cell line. […] Groups of control mice were given corn oil alone or BNF at the concentration of 120 mg/kg.
# Figure 3 In Vitro dose response curves. A. Rat hepatoma cell lines bearing the murine AHR^d (AHR^d-15) or the rat AHR^b (5L) were incubated with increasing doses of TCDD in 96-well plates. After 40 hours, EROD activity was performed from whole cell lysate. (n = 3). […] (n = 3). C. Same assay as in A, with increasing doses of BNF. (n = 2). […] Following 48 hours, hepatic microsomal proteins were isolated and used for the assessment of EROD activity. Animals were treated in groups of 4. Error bars: S.D.
# Hepatic microsomes were prepared by homogenizing 0.5 g of liver tissue in 5 mL of MENG buffer (25 mM buffer sodium morpholinopropane sulfonate buffer (pH 7.5) containing 0.025% (w/v) NaN3, 1 mM EGTA and 10% (v/v) glycerol). The homogenate was subjected to centrifugation at 10,000×g for 20 minutes, followed by centrifugation of the supernatant for 1 hour at 100,000×g and 4°C. The pellet was dissolved in 15 mM Tris-HCl buffer containing 250 mM sucrose (pH 8.0) and aliquots were stored at −80°C. Protein concentration was determined using the Bicinchoninic Acid Protein Assay Reagent (Pierce Biotechnology, Rockford, IL). […]
compound,measurement,value
"Cc1cc(C)c(C=C2C(=O)Nc3ccccc32)[nH]1 [SU5416, 3-(3,5-dimethyl-1H-pyrrol-2-ylmethylene)-1,3-dihydro-indole-2-one]",hepatic EROD activity,dose-dependent increase

# From article PMC3435281 (PLoS ONE, 2012)
